Tests used:
Type in all cases: cell-based
[1] = system: Human bone marrow-derived mesenchymal stem cells (hMSC); test: Paracrine factor release amount test 1: Angiogenin (ANG) in culture supernatant by ELISA; conditions: 5 μM for 48 hr, then 48 hr in compound-free medium, relative to 2D DMSO control
Method: (§1) Human bone marrow-derived mesenchymal stem cells (hMSC, manufactured by PromoCell) were precultured by a single layer culture method (2D) using Mesenchymal Stem Cell Growth Medium 2 (manufactured by PromoCell). hMSCs were suspended in the same medium. In three-dimensional culture method (3D), hMSCs were seeded at 5×10^5 cells/2 mL/well on a cell-non-adhesive 6-well EZSPHERE plate (manufactured by AGC TECHNO GLASS, #4810-900) having a depression on the bottom surface. In 2D, hMSCs were seeded on a 6-well flat bottom plate (manufactured by Corning Incorporated, #3516) at 5×10^5 cells/2 Continuously, compounds k-1:B-1, k-1:D-1, k-1:J-1 dissolved in DMSO were added at 2 μL/well to a final concentration of 5 μM, and the mixture was cultured in an incubator at 37° C., 5% CO2 for 48 hr. As a control, DMSO was added at a final concentration of 0.05%. After 48 hr, the medium was exchanged with a medium not containing the compound, and the cells were cultured in an incubator at 37° C., 5% CO2. After 48 hr, the culture supernatant was recovered. The number of cells at the time of recovery of the culture supernatant was measured by dispersing the cells in single cells using Detach Kit (manufactured by PromoCell), suspending a part thereof in Trypan Blue (manufactured by Wako Pure Chemical Industries, Ltd.) and counting the number of viable cells using TC-20 (manufactured by BIO-RAD).
Angiogenin (ANG), a cytokine which is one kind of paracrine factor contained in the culture supernatant, was quantified using a plate reader. For the quantification, Human Angiogenin ELISA Kit (manufactured by Abcam, #ab99970) was used.
The concentration of ANG in the culture supernatant was normalized by the cell count, and the relative values for the control group cultured in 2D are shown in Table 4. As a result, the secretion amount increased in both 2D culture and 3D culture by adding compounds k-1:B-1, k-1:D-1, and compound k-1:J-1. Therefrom it was clarified that the secretion of the paracrine factor can be promoted by adding the compounds k-1:B-1, k-1:D-1, and compound k-1:J-1 to the mesenchymal stem cells.

[2] = system: Human bone marrow-derived mesenchymal stem cells (hMSC); test: Paracrine factor release amount test 3: VEGF in culture supernatant by ELISA; conditions: 5 μM for 48 hr, then 48 hr in compound-free medium, relative to 2D DMSO control
Method: as §1, with “5×10^5 cells/2 mL/well. Continuously, compounds” for “5×10^5 cells/2 Continuously, compounds”
Vascular endothelial growth factor (VEGF), a cytokine which is one kind of paracrine factor contained in the culture supernatant, was quantified using a plate reader. For the quantification, Human VEGF ELISA Kit (manufactured by Abcam, #ab100662) was used.
The concentration of VEGF in the culture supernatant was normalized by the cell count, and the relative values for the control group cultured in 2D are shown in Table 7. As a result, the secretion amount increased in both 2D culture and 3D culture by adding compounds k-1:B-1, k-1:D-1, and compound k-1:J-1. Therefrom it was clarified that the secretion of the paracrine factor can be promoted by adding the compounds k-1:B-1, k-1:D-1, and compound k-1:J-1 to the mesenchymal stem cells.

[3] = system: Human bone marrow-derived mesenchymal stem cells (hMSC); test: Paracrine factor release under inflammation stimulation (TNFα): MCP-1 in culture supernatant by flow cytometer; conditions: 5 μM for 48 hr, then 48 hr with 10 ng/mL TNFα only, relative to 2D DMSO control
Method: as §1, with “mL/well. […]” for “Continuously, compounds k-1:B-1, k-1:D-1, k-1:J-1 dissolved in DMSO were added at 2 μL/well to a final concentration of 5 μM, and the mixture was cultured in an incubator at 37° C., 5% CO2 for 48 hr. As a control, DMSO was added at a final concentration of 0.05%. After 48 hr, the medium was exchanged with a medium not containing the compound, and the cells were cultured in an incubator at 37° C., 5% CO2. After 48 hr, the culture supernatant was recovered.”
Monocyte Chemotactic Protein-1 (MCP-1), a cytokine which is one kind of paracrine factor contained in the culture supernatant, was quantified using a flow cytometer. The quantification analysis was performed using BD™ CBA Flex Set (manufactured by BD 558287) according to the protocol of BD. […]

[4] = system: Human bone marrow-derived mesenchymal stem cells (hMSC); test: Paracrine factor release under inflammation stimulation (TNFα): TSG-6 in culture supernatant by ELISA; conditions: 5 μM for 48 hr, then 48 hr with 10 ng/mL TNFα only, relative to 2D DMSO control
Method: (§2) Human bone marrow-derived mesenchymal stem cells (hMSC, manufactured by PromoCell) were precultured by a single layer culture method (2D) using Mesenchymal Stem Cell Growth Medium 2 (manufactured by PromoCell). hMSCs were suspended in the same medium. In three-dimensional culture method (3D), hMSCs were seeded at 5×10^5 cells/2 mL/well on a cell-non-adhesive 6-well EZSPHERE plate (manufactured by AGC TECHNO GLASS, #4810-900) having a depression on the bottom surface. In 2D, hMSCs were seeded on a 6-well flat bottom plate (manufactured by Corning Incorporated, #3516) at 5×10^5 cells/2 mL/well. Continuously, compound k-1:J-1 dissolved in DMSO was added at 2 μL/well to a final concentration of 5 μM, and the mixture was cultured in an incubator at 37° C., 5% CO2 for 48 hr. As a control, DMSO was added at a final concentration of 0.05%. […] The number of cells at the time of recovery of the culture supernatant was measured by dispersing the cells in single cells using Detach Kit (manufactured by PromoCell), suspending a part thereof in Trypan Blue (manufactured by Wako Pure Chemical Industries, Ltd.) and counting the number of viable cells using TC-20 (manufactured by BIO-RAD).
Tumor necrosis factor-inducible gene 6 protein (TSG-6), a cytokine which is one kind of paracrine factor contained in the culture supernatant, was quantified using a plate reader. […]

[5] = system: Human bone marrow-derived mesenchymal stem cells (hMSC); test: Paracrine factor release amount test 2: Stanniocalcin-1 (STC-1) in culture supernatant by ELISA; conditions: 5 μM for 48 hr, then 48 hr in compound-free medium, relative to 2D DMSO control
Method: as §2, with “k-1:B-1” for “k-1:J-1”, “hr.” for “hr. As a control, DMSO was added at a final concentration of 0.05%.”
Stanniocalcin-1 (STC-1), a cytokine which is one kind of paracrine factor contained in the culture supernatant, was quantified using a plate reader. For the quantification, Human Stanniocalcin ELISA Kit (manufactured by Abcam, #ab213829) was used. […]

Structure (SMILES)	ANG, relative value of secretion amount (pg) per 10000 cells ([1]; 3D culture)	VEGF, relative value of secretion amount (pg) per 10000 cells ([2]; 3D culture)	MCP-1, relative value of secretion amount (pg) per 10000 cells ([3]; 2D culture)	MCP-1, relative value of secretion amount (pg) per 10000 cells ([3]; 3D culture)	TSG-6, relative value of secretion amount (pg) per 10000 cells ([4]; 2D culture)	TSG-6, relative value of secretion amount (pg) per 10000 cells ([4]; 3D culture)	ANG, relative value of secretion amount (pg) per 10000 cells ([1]; 2D culture)	VEGF, relative value of secretion amount (pg) per 10000 cells ([2]; 2D culture)	STC-1, relative value of secretion amount (pg) per 10000 cells ([5]; 2D culture)	STC-1, relative value of secretion amount (pg) per 10000 cells ([5]; 3D culture)
CCC(=NNC(=O)CNc1cccc(O)c1)c1ccc(O)c(C)c1O [k-1:D-1]	1.50	3.27	–	–	–	–	–	–	–	–
CCC(=NNC(=O)NCc1cccc(O)c1)c1ccc(O)c(C)c1O [k-1:J-1]	1.38	6.18	0.85	1.41	1.56	3.21	–	–	–	–
CCC(=NNC(=O)C(C)Nc1ccccc1)c1ccc(O)c(C)c1O (racemic) [k-1:B-1]	1.38	3.59	–	–	–	–	1.34	4.40	2.67	8.95

Source: US20210353683A1, “ADDITIVE FOR MEDIUM FOR PROMOTING PRODUCTION OF PARACRINE FACTOR” (NISSAN CHEMICAL CORPORATION, priority 2018, published 2021)
